Test results from patent publication US20100173923A1, “4 (PYRROLOPYRIDINYL)PYRIMIDINYL-2-AMINE DERIVATIVES” (priority 2006, published 2010).

Test system: tumour cells (for example commercially available colon carcinoma cell lines)
Test: Inhibition of the proliferation/vitality of tumour cells in vitro (Crystal Violet staining)
Type: cell-based
Details: 48 hours incubation with test substance, serum-containing medium, Crystal Violet absorbance, value given as range
Procedure: In the present experiment description, the inhibition of tumour cell proliferation/tumour cell vitality by active ingredients is described.
The cells are sown in a suitable cell density in microtitre plates (96-well format). On the next day, the test substances are added in the form of a concentration series. After two further days of cultivation in serum-containing medium, the cell density is determined photometrically by staining the cells with Crystal Violet.
For example commercially available colon carcinoma cell lines.
The cells are cultivated in medium. At intervals of 3-4 days, the cells are detached from the culture dishes with the aid of trypsin solution and sown in suitable dilution in fresh medium. The cells are cultivated at 37° Celsius and 10% CO2.
• A cell culture bottle is washed with 1×PBS • Addition of 3 ml of 1× trypsin solution. Incubation at 37° C. for 5 min in an incubator. • Termination by addition of 7 ml of medium • Centrifugation of the cells (for example for 5 minutes at 150×g (1200 rpm)) • Remove medium by tilting and resuspend cells in fresh medium • Cell counting, for example using Trypan Blue solution (1:2 dilution) in counting chamber • Dilute cell suspension to 25,000 cells/ml and plate out 100 μl/well (2500 cells/well) • Incubation of the microtitre plate at 37° C. in 10% CO2 overnight
• The test substances are dissolved, for example, in DMSO and subsequently employed in corresponding concentration (if desired in a dilution series) in the cell culture medium. The dilution steps can be adapted depending on the efficiency of the active ingredients and the desired spread of the concentrations. Cell culture medium is added to the test substances in corresponding concentrations. Within the dilution series, the final concentration of DMSO in the cell culture medium can be constant (for example at 0.5%). The addition of the test substances to the cells can take place one day after sowing of the cells. To this end, the medium is removed from the cells, and the test substance dilutions are added to the cells (in the desired concentrations in the cell culture medium). […]
• The medium is removed from the cells, and the cells are washed with PBS. […] An absorption measurement is carried out at corresponding wavelength, for example 550 nm, in a microtitre plate reader (for example TECAN Genios No F129004). […]
The absorbance value of the medium control (no cells and test substances used) is subtracted from all other absorbance values. The controls (cells without test substance) with the solvent DMSO are set equal to 100 percent, and all other absorbance values are set in relation thereto (for example in % of control):
IC50 values (50% inhibition) are determined with the aid of statistics programs, such as, for example, RS1.

SMILES | IC50
c1ccc(Nc2nccc(-c3c[nH]c4ncccc34)n2)cc1 [Compound A1, 3-(2-phenylaminopyrimidin-4-yl)-1H-pyrrolo[2,3-b]pyridine] | 0.05 to 0.5 µM
COCCn1cc(-c2ccnc(Nc3ccccc3)n2)c2cccnc21 [Compound A2, 1-(2-methoxyethyl)-3-(2-phenylaminopyrimidin-4-yl)-1H-pyrrolo[2,3-b]pyridine] | 5 to 50 µM
CNc1nccc(-c2c[nH]c3ncccc23)n1 [Compound A3] | 0.5 to 5 µM
CNc1nccc(-c2cn(CCOC)c3ncccc23)n1 [Compound A4] | 5 to 50 µM
